The subject of assay [1] is cisplatin-induced C57BL/6J mice. Nature of the assay: Serum erythropoietin in cisplatin-induced renal anemia C57BL/6J mice. The format is in vivo, mouse. On the procedure:
Modeling method: the animals were randomly divided into 5 groups, i.e., normal control group, model group, three treatment groups, wherein the normal control group was injected with equal volume of normal saline, the model group and three treatment groups were intraperitoneally injected with cisplatin (CDDP) 5 mg/kg once a week, for 4 weeks.
The route of administration is intragastrical. TBN is administered twice a day (fixed at 9:00-10:00 am and 3:00-4:00 pm), and Roxadustat is administered once every two days (fixed at 9:00-10:00 am), for 4 weeks.
At the end of the experiment, after rats were anesthetized, the blood was taken from the abdominal aorta, allowed to stand for 1 hour, centrifuged at 3000 rpm for 10 min, and stored in aliquots at −80° C. The content of erythropoietin in the serum was detected by using of a kit. After the administration, compared with the model group, the TBN treatment groups can increase the expression of erythropoietin to varying degrees.

Assay [2] relates to STZ-induced SHR rats. Nature of the assay: Serum iron ion content in STZ-induced SHR rats. The format is in vivo, rat. As to conditions: TBN group (T60), 60 mg/kg. On the procedure:
(§1) 6 W-age SHR rats were abstained from food but not water for 12 h before injection, and then intraperitoneally injected with 55 mg/kg STZ after weighing (STZ required for fast injection, to be completed within 10 min), then put back to the cage to ensure that rat has sufficient drinking water in the period of 24 h, and the rats of normal control group were injected with citric acid buffer (pH 4.5) in the same volume. After 3 weeks of STZ injection, retinal venous blood was collected, and blood glucose ≥16.7 mmol/L was used as a molding standard, where the model of SHR rats that meet the above criteria is considered successful.
(§2) The route of administration is intragastrical, TBN is administered twice a day (fixed at 9:00-10:00 am and 3:00-4:00 pm), and Losartan is administered once a day (fixed at 9:00-10:00 am), continuously for 6 weeks.
At the end of the experiment, after rats were anesthetized, blood was taken from the rear abdominal aortic pulse, allowed to stand for 1 h, centrifuged at 3000 rmp centrifuged for 10 min to collect supernatant, and the iron ion content was measured by using an automated biochemical device and the level of red cells in serum was detected by using kits.

The test system of assay [3] is diabetic neuropathy model rats. Nature of the assay: Mechanical pain threshold (von Frey) in diabetic neuropathy model rats. The format is in vivo, rat. As to conditions: TBN 30 mg/kg twice a day. The procedure:
Modeling method: STZ was weighed and transferred to a centrifuge tube, wrapped with aluminum foil, kept away from light, and stored at −20° C. STZ sodium citrate solution is prepared when it is in need to use. The rats were fasted without water for 12 hours before injection. After weighing, the rats were injected with 55 mg/kg STZ intraperitoneally (STZ needs to be injected quickly, and the injection was completed within 10 minutes), and then returned to the cage to ensure that the rats had sufficient drinking water for 24 hours. Rats were injected with an equal volume of citrate buffer (pH 4.5). Four weeks after STZ injection, blood was collected from the tail vein, and the rats with blood glucose less than 16.7 mmol/L were eliminated; the taillick threshold temperature was increased, and the mechanical withdrawal threshold (MWT) was decreased, as the standard of a successful DPN model.
The animals were randomly divided into 3 groups (n=7), namely the normal control group, the model group, and the TBN (30 mg/kg) group. The normal group and the model group were injected with an equal volume of normal saline, and TBN was administered twice a day (fixed at 9:00-10:00 am and 3:00-4:00 pm), continuously for 4 weeks.
Experiment for detecting mechanical pain threshold: In a quiet environment, the rats were individually placed in a porous steel wire cage. […]

Assay [4] relates to STZ-induced DKD rats. Briefly: PAS staining, glomerular sclerosis index, STZ-induced DKD rats. As to conditions: all doses of TBN (10, 30, 60 mg/kg twice/day); Losartan 10 mg/kg once/day; 6 weeks; P<0.001 vs Vehicle. The format is in vivo, rat. The procedure:
Before the injection, the rats were fasted for 12 hours without water. After weighing, the rats were injected with 55 mg/kg STZ intraperitoneally (STZ needs to be injected quickly, and the injection was completed within 10 minutes), and then returned to the cage to ensure that the rats had sufficient drinking water for 24 hours. Rats were injected with an equal volume of citrate buffer (pH 4.5). After STZ injection for 3 weeks, blood was collected from the tail vein, and blood glucose ≥16.7 mmol/L was used as the criteria for the standard of the rats.
The route of administration is intragastric administration. TBN was administered twice a day (fixed at 9:00-10:00 am and 3:00-4:00 pm), and Losartan was administered once a day (fixed at 9:00-10:00 am) continuously for 6 weeks.
At the end of the experiment, kidney tissues were quickly separated, fixed with 4% paraformaldehyde and embedded in paraffin, serially sliced, 5 μm each, dried at 37° C. for 1 h, and then stained with PAS. The process is briefly as follows: paraffin sections are taken out of the 65° C. oven and immediately placed in xylene for deparaffinization and gradient alcohol rehydration, followed by periodic acid treatment for 5 min and Schiff treatment for 10 min, and then differentiation is performed with differentiation solution for 10 s. […]

The next assay has as its system EPO mRNA. Briefly: EPO mRNA by RT-PCR in CoCl2-induced HepG2 cell hypoxia model. As to conditions: 30 μM, 24 h, HepG2 cells, 50 μM CoCl2.
Assay [5] concerns STZ-induced DKD rats. Briefly: Retinopathy of STZ-induced DKD rats. The format is in vivo, rat. As to conditions: DKD rats after treatment, Table 1 (FIG. 5). The procedure:
SD rats (200±10 g) were used as model animals, which were fasted for 12 h before injection. STZ was dissolved in citrate buffer at 1% concentration, and rats were fasted and intraperitoneally injected with 55 mg/kg STZ and placed in the cage, the rats being ensured with adequate water intake for 24 h. STZ injections need to be fast and complete within 10 minutes of injection. The normal control group was injected with an equal volume of pH 4.5 citric acid-sodium citrate buffer. The state of the animals (multiple drinking and polyuria) was observed. After 3 weeks of STZ injection, blood was collected from the tail vein, and fasting blood glucose ≥16.7 mmol/L was measured as the standard for diabetic nephropathy in rats.
DKD rats were randomly assigned to 6 groups and given with different drugs. After 6 weeks of administration, the experiment was terminated and the protective effect of the drug on DKD rats was observed.
During the experiment, the retinopathy of rats was observed during daily administration, and the dates of retinopathy in different groups of rats were recorded.

Assay [6] relates to STZ-induced SHR rats. Briefly: Body weight of STZ-induced SHR rats. The format is in vivo, rat. The settings on record: 60 mg/kg twice/day, 6 weeks. On the procedure: as §1, §2
The general situation and weight changes are observed after the establishment of the rat model, and the general situation includes the activity of rats, mental state, hair color, diet, drinking water and urine volume, etc., and water consumption and feed weights were recorded each week.

Take `Cc1nc(C)c(/C=[N+](\[O-])C(C)(C)C)nc1C` [TBN]: the “expression/content of erythropoietin vs model group” value in assay [1] (TBN treatment groups (30, 60 mg/kg), to varying degrees, dose dependence) was “increase”. In addition, in assay [1] (high-dose group (60 mg/kg) vs Roxadustat 10 mg/kg), the “efficacy on EPO content compared with positive control drug” value is “stronger than that of the positive control drug”. Also, the “content of iron ions in serum vs model group” value with STZ-induced SHR rats [2] is “significantly increased”. Also, the “mechanical pain threshold vs model group” value in assay [3] (2 weeks after administration (6 weeks after STZ)) is “no statistically significant difference”. For the same compound, in assay [3] (4 weeks after administration (8 weeks after STZ), P<0.05), the “mechanical pain threshold vs model group” value was “increased”. The glomerular sclerosis index entry in the assay with STZ-induced DKD rats [4] was “significantly reduce”. In the assay with EPO mRNA, the “expression of EPO mRNA” value was “significantly increase”. Moreover, in the assay on STZ-induced DKD rats [5], the number of retinopathy entry was “reduced” and the “time when retinopathy occurred” value is “relatively delayed”. The “body weight vs SHR-STZ group” value with STZ-induced SHR rats [6] was “increased significantly”.

The values above are taken from US12377095B2, “Use of ligustrazine nitrone derivatives in treatment and prevention of diabetic complication diseases” (QINGDAO HAILAN PHARMACEUTICALS CO., LTD., priority 2019, dated 2025).
